How the values were obtained:
PGHS 2 = biological target: T1, PGHS 2 (Homo sapiens, UniProt P35354); test: Prostaglandin G/H Synthase Inhibition Assay (PGHS 2); type: biochemical; settings: Table A; 100 μM arachidonate; 2 min preincubation; read-out: IC50 (PGHS2)
T1 sequence (P35354 18-604): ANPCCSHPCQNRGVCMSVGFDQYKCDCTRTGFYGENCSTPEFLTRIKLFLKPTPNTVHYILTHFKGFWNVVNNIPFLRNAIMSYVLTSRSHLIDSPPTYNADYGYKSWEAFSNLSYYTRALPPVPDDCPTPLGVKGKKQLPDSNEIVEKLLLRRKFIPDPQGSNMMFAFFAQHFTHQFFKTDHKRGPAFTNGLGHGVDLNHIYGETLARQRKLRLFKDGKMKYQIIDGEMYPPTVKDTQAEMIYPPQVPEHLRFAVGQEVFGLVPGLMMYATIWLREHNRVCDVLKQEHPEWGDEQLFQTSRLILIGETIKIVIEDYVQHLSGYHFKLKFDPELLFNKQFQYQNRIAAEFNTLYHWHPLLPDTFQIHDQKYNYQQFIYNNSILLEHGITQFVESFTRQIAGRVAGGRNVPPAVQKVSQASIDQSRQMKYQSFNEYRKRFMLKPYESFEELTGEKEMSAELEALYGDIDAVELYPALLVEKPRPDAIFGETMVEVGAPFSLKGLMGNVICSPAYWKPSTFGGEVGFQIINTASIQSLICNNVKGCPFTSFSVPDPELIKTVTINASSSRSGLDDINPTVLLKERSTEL
Description: Prostaglandin G/H synthase (cyclooxygenase, PGHS, Cox) activity was determined spectrophotometrically essentially as described by Kulmacz et al (reference). […] The assay was adapted to a 96 well microtiter dish format as described below. […] The reaction plate was immediately placed in a microtiter reader and readings made at 610 nm for 1.5 min at 3 sec intervals. Reaction rates were calculated from the slope of the linear portion of the absorbance versus time curve. Rates for control samples lacking added inhibitors were used to calculate the percent inhibition of each test compound.
The ratio PGHS 1 IC50 /PGHS 2 IC50 is referred to as the selectivity ratio.

[1] = tested on: PGE2 production in human monocytes; test: Cellular Assay: inhibition of PGE2 production in LPS-stimulated human peripheral blood monocytes; type: cell-based; settings: Monocyte, Table B, LPS 1 μg/ml, 17.5 hours
Description: Human peripheral blood monocytes were obtained from normal donor blood by leukophoresis and isolated by elutriation. Monocytes were suspending in RPMI medium at 2×10^6 cells/ml, and plated at 200 μL/well in 96 well microtiter plates. Test compounds were added to the cells at appropriate concentration in DMSO such that the final DMSO concentration was 0.5% in the medium. Cells and compound or DMSO alone were incubated for 1 hour at 37° C. at which time cells were stimulated with 1 μg/ml LPS (Lipopolysaccharide, Salmonella typehrium, 5 mg/ml in 0.1% aqueous TEA) to induce PGHS 2 enzyme activity and prostaglandin production.

Cox-2 = settings: cited from earlier work
prostaglandin synthesis = settings: in vivo; cited from earlier work
[2] = tested on: both isoenzymes (prostaglandin G/H synthase, Cox 1 and Cox 2); settings: cited from earlier work

| IC50 (PGHS 2) [µM] | SMILES | also measured |
| --- | --- | --- |
| < 10 | CS(=O)(=O)c1ccc(-c2ccccc2OC2CCCCC2)cc1 [Example 143] | – |
| 50 to 300 | CS(=O)(=O)c1ccc(-c2cc(N)ccc2-c2ccc(F)cc2)cc1 [Example 78] | – |
| < 10 | CS(=O)(=O)c1ccc(-c2ccccc2Oc2ccccc2)cc1 [Example 144, 1-Phenoxy-2-(4'-methylsulfonylphenyl)benzene] | IC50 [1]: 0.051 to 0.1 µM |
| – | CS(=O)(=O)c1ccc(-c2ccccc2-c2ccc(F)cc2)cc1 [Example 2] | IC50 [1]: 0.01 to 0.05 µM |
| 10 to 50 | CS(=O)(=O)c1ccc(-c2ccccc2C2=CCCCC2)cc1 [Example 70, 1-Cyclohexene-2-(4'-methylsulfonylphenyl)benzene] | – |
| 50 to 300 | CS(=O)(=O)c1ccc(-c2ccc(N)cc2-c2ccc(F)cc2)cc1 [Example 79] | – |
| 10 to 50 | COc1cccc2cc(-c3ccccc3-c3ccc(S(C)(=O)=O)cc3)ccc12 [Example 50] | – |
| 50 to 300 | CS(=O)(=O)c1ccc(-c2ccccc2-c2cnc3ccccc3c2)cc1 [Example 53] | – |
| 10 to 50 | CS(=O)(=O)c1ccc(-c2cc3ccccc3cc2-c2ccccc2)cc1 [Example 401, 2-(4-methylsulfonylphenyl)-3-phenylnaphthalene] | – |
| < 10 | COCc1ccc(-c2ccccc2-c2ccc(S(C)(=O)=O)cc2)cc1 [Example 42] | – |
| < 10 | CS(=O)(=O)c1ccc(-c2ccccc2Oc2ccc(F)cc2)cc1 [Example 141] | – |
| < 10 | COc1ccc(-c2ccccc2-c2ccc(S(C)(=O)=O)cc2)cc1 [Example 5] | IC50 [1]: 0.01 to 0.05 µM |
| – | CS(=O)(=O)Nc1ccc([N+](=O)[O-])cc1OC1CCCCC1 [NS-398] | time-dependence of inhibition (Cox-2; Cox-2, longer exposure): selective time-dependence against Cox-2; tightness / reversibility of binding inhibition (Cox-2; reversed only following enzyme denaturation and organic extraction): extremely tight binding inhibition; gastric lesions (prostaglandin synthesis): nor produce gastic lesions; gastric prostaglandin synthesis (prostaglandin synthesis): did not block gastric prostaglandin synthesis; mode of inhibition [2]: competitive toward both isoenzymes |
| 50 to 300 | CS(=O)(=O)c1ccc(-c2ccccc2-c2cccnc2)cc1 [Example 51] | – |
| 50 to 300 | CS(=O)(=O)c1ccc(-c2ccccc2-n2cccc2)cc1 [Example 153, 1-[2-(4'-methylsulfonylphenyl)phenyl]pyrrole] | – |
| 10 to 50 | CC(=O)c1ccc(-c2ccc(F)cc2)c(-c2ccc(S(C)(=O)=O)cc2)c1 [Example 93] | – |
| 50 to 300 | CS(=O)(=O)c1ccc(-c2ccccc2-c2ccccc2)c(Cl)c1 [Example 305] | – |
| 50 to 300 | CS(=O)(=O)c1ccc(-c2ccccc2-c2ccc3ccccc3n2)cc1 [Example 52] | – |
| 50 to 300 | CS(=O)(=O)c1ccc(-c2cc(O)ccc2-c2ccccc2)cc1 [Example 87, 3-(4'-methylsulfonylphenyl)-4-phenylphenol] | – |
| 50 to 300 | CS(=O)(=O)c1ccc(-c2ccccc2-c2ccc(N)cc2)cc1 [Example 16] | – |

| IC50 (PGHS 2) [µM] | SMILES | also measured |
| --- | --- | --- |
| 10 to 50 | CN(C)c1ccc(-c2ccccc2-c2ccc(S(C)(=O)=O)cc2)cc1 [Example 20] | IC50 [1]: 0.01 to 0.05 µM |
| < 10 | NS(=O)(=O)c1ccc(-c2ccccc2-c2ccccc2)cc1 [Example 312, 2-(4-aminosulfonylphenyl)-1-biphenyl] | – |
| 10 to 50 | CS(=O)(=O)c1ccc(-c2ccccc2N2CCCCC2)cc1 [Example 151, 1-[2-(4-methylsulfonylphenyl)phenyl]piperidine] | – |
| 10 to 50 | COc1cccc(-c2ccccc2-c2ccc(S(C)(=O)=O)cc2)c1 [Example 4] | IC50 [1]: 0.051 to 0.1 µM |
| 10 to 50 | CS(=O)(=O)c1ccc(-c2ccc([N+](=O)[O-])cc2-c2ccc(F)cc2)cc1 [Example 81] | IC50 [1]: 0.051 to 0.1 µM |
| < 10 | CS(=O)(=O)c1ccc(-c2ccccc2C#Cc2ccccc2)cc1 [Example 152] | – |
| 10 to 50 | CS(=O)(=O)c1ccc(-c2ccccc2C2CCCCC2)cc1 [Example 71] | – |
| 10 to 50 | CS(=O)(=O)c1ccc(-c2ccccc2-c2ccccc2)cc1 [Example 1] | – |
| 10 to 50 | COc1ccc(-c2ncccc2-c2ccc(S(C)(=O)=O)cc2)cc1 [Example 412] | – |
| 10 to 50 | CS(=O)(=O)c1ccc(-c2ccccc2-c2ccc3ccccc3c2)cc1 [Example 49] | IC50 [1]: 0.051 to 0.1 µM |
| 10 to 50 | Cc1ccc(-c2ccccc2-c2ccc(S(C)(=O)=O)cc2)cc1 [Example 3] | – |
| 50 to 300 | COc1ccc(-c2ccccc2-c2ccc(S(C)(=O)=O)cc2)cc1OC [Example 6] | – |
| 10 to 50 | CS(=O)(=O)c1ccc(-c2ccccc2-c2ccc(C=O)cc2)cc1 [Example 41] | IC50 [1]: 0.051 to 0.1 µM |
| 10 to 50 | CS(=O)(=O)c1ccc(-c2ccccc2-c2ccc3sccc3c2)cc1 [Example 47] | – |
| < 10 | CS(=O)(=O)c1ccc(-c2ccccc2-c2cc3ccccc3s2)cc1 [Example 48] | IC50 [1]: 0.01 to 0.05 µM |
| 10 to 50 | CS(=O)(=O)c1ccc(-c2cccnc2-c2ccc(F)cc2)cc1 [Example 411] | – |
| 10 to 50 | CS(=O)(=O)c1ccc(-c2cc([N+](=O)[O-])ccc2-c2ccc(F)cc2)cc1 [Example 80] | – |
| 50 to 300 | CS(=O)(=O)c1ccc(-c2ccccc2-c2ccc(CO)cc2)cc1 [Example 43] | – |
| 50 to 300 | CS(=O)(=O)c1ccc(-c2ccccc2OCc2ccccc2)cc1 [Example 145] | – |
